This is an account of results in BindingDB's records for doi:10.1016/s0960-894x(03)00407-4 (Guilford Pharmaceuticals, 2003).

A short description of the test: Concentration required for the neuroprotective effect determined by inhibition of GCP II.

The EC50 is the concentration that produces a half-maximal response.

Turning to `O=C(O)CCC(CP(=O)(O)Cc1c(F)c(F)c(F)c(F)c1F)C(=O)O` (racemic), the EC50 is 9.5 nM.
Regarding `O=C(O)CCC(CCCC(=O)NO)C(=O)O` (stereo not drawn) [2-(3-Hydroxycarbamoyl-propyl)-pentanedioic acid], a half-maximal response (EC50) required 1100 nM.
With `O=C(O)CCC(CC(=O)NO)C(=O)O` (stereo not drawn) [2-[(hydroxycarbamoyl)methyl]pentanedioic acid] the figure was 220 nM.
